Experimental data: patent publication US20040214833A1, “Tricyclic heteroaromatic compounds” (Boehringer Ingelheim International GmbH, priority 2003, published 2004)
Where two headings read alike, the source gives them in different places.

Target: T1, N-type calcium channel (Homo sapiens, UniProt Q00975)
T1 construct: expressed in transfected cells; host or cells: HEK 293
Assay: Patch-Clamp blockade of voltage-dependent N-type calcium channels in recombinant HEK 293 cells
Type: cell-based
Description: The antinociceptive activity of the compounds of this invention is based on a blockade of the voltage-dependent N-type calcium channels. This inhibiting activity is detected electrophysiologically by the Patch-Clamp technique (cf: Improved patch-clamp techniques for high resolution current recording from cells and cell-free membrane patches; Hamill et al.; Pflügers Archiv, 391, 1981, 85-100) on recombinant HEK 293 cells which express the N-type calcium channel.

[1] = N-type calcium channel, Patch-Clamp, HEK 293 cells, read-out: IC50 value
[2] = Patch-Clamp technique, recombinant HEK 293 cells which express the N-type calcium channel, read-out: IC50 values

T1 sequence (Q00975 whole entry): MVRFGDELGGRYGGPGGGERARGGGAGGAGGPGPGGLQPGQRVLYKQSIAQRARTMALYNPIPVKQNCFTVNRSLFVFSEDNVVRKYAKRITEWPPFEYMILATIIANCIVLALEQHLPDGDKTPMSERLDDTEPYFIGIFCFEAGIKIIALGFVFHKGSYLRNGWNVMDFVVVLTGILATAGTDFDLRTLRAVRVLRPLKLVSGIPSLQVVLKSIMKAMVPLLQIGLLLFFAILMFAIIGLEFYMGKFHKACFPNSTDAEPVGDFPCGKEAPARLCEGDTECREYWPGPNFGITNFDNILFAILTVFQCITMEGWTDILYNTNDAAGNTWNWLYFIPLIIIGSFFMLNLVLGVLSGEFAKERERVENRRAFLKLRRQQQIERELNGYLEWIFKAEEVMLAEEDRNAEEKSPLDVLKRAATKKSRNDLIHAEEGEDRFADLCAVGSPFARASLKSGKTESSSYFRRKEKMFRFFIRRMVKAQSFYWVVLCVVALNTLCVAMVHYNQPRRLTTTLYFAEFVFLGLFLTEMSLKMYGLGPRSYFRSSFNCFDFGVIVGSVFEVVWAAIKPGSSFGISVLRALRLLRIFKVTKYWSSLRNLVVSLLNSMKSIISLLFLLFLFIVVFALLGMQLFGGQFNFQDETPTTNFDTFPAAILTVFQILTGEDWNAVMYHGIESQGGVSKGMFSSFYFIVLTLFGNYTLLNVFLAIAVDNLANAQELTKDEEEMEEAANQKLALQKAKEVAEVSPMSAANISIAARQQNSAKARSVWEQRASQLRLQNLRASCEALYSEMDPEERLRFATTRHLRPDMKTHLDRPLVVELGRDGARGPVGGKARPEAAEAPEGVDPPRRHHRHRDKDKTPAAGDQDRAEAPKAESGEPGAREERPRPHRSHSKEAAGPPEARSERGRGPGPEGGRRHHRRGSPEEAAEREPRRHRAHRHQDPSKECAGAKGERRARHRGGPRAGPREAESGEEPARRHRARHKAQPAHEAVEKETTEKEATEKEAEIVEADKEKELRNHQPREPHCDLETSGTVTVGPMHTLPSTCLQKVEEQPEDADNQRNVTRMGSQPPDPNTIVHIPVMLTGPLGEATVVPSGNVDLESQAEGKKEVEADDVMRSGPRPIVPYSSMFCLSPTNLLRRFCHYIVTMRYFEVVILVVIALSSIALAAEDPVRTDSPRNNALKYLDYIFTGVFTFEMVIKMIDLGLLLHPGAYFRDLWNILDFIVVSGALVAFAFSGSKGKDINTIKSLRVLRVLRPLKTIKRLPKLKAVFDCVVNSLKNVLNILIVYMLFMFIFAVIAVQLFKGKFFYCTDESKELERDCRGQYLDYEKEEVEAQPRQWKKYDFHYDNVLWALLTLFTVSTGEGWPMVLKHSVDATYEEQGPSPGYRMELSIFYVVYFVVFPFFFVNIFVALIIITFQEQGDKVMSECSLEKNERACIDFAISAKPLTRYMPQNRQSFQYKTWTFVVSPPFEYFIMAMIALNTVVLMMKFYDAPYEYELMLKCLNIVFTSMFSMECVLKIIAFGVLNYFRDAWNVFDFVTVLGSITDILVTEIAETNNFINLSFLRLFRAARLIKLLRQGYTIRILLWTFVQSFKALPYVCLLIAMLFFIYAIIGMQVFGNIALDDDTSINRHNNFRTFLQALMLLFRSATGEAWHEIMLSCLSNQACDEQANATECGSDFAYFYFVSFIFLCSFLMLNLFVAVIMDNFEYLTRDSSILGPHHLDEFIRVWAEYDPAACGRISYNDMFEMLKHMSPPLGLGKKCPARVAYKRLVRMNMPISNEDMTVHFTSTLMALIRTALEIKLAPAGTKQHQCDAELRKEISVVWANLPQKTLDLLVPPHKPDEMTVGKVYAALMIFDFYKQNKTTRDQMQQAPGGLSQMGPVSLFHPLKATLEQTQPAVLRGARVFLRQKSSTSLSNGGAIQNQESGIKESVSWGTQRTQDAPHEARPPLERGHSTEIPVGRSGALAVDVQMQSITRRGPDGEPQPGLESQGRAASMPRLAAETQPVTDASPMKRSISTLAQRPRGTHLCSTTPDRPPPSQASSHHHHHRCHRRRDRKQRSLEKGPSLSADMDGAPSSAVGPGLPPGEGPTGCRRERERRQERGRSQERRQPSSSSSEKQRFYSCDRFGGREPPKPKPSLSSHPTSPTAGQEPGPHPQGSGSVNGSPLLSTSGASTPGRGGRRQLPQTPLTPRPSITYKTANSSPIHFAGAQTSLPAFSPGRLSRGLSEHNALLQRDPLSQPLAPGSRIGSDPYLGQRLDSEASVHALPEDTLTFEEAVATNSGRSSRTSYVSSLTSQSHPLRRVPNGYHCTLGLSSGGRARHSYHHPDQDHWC
T1 sequence (P54289 25-956 partner limits assumed): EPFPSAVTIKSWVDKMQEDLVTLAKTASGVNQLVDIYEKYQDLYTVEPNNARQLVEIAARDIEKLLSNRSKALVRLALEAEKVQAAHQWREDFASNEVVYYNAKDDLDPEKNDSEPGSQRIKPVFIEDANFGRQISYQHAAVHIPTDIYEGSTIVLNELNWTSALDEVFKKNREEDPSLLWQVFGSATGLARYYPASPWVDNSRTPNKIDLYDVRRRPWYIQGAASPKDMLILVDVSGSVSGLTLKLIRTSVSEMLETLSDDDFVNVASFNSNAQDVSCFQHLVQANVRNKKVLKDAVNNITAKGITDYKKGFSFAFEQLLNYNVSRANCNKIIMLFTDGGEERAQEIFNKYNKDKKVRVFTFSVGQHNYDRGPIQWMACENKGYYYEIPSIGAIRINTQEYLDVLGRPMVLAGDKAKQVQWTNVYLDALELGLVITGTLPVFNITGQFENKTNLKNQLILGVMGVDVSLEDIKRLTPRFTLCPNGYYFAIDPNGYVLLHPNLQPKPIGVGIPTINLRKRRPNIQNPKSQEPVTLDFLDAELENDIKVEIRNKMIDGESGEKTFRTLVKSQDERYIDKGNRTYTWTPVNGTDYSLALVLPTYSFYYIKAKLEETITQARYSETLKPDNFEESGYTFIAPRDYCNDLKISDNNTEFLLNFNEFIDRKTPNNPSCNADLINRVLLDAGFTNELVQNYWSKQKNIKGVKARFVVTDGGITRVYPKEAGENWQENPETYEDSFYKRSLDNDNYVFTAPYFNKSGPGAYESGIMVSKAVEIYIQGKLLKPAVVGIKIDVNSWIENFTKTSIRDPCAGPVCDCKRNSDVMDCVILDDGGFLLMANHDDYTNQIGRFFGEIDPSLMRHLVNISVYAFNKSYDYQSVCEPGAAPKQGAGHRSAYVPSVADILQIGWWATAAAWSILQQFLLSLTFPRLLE
T1 sequence (P54289 957-1103 partner limits assumed): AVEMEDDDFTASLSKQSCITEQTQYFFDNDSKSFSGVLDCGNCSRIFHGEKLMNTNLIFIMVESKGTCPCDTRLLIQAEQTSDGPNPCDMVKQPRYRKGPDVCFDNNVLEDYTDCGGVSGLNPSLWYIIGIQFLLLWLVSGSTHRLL
T1 sequence (P54284 whole entry partner): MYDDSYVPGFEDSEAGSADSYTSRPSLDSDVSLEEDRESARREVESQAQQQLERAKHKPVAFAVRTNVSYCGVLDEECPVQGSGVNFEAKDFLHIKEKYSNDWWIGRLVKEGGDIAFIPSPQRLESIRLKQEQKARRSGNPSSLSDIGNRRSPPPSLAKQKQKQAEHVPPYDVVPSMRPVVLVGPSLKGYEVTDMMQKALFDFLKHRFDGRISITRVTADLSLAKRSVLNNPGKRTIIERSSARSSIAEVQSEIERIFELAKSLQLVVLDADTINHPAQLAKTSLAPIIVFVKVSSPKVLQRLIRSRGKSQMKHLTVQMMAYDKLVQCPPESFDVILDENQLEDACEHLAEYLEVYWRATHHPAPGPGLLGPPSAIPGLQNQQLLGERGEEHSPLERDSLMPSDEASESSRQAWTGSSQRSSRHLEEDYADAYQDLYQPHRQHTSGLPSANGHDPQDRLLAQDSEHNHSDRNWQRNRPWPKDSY

SMILES | IC50 [1] | IC50 [2] | other results
CN(C)c1cc(-c2cccc(F)c2)nc2ccc3c(ncn3C)c12 [Example 3, 9-dimethylamino-7-(3-fluorophenyl)-3-methyl-3H-imidazo [4,5-f]quinoline] | – | – | IC50 value (N-type calcium channel, Patch-Clamp, HEK 293 cells): biphasic
Cc1nc2c(ccc3nc(-c4cccc(F)c4)cc(N(C)C)c32)s1 [Example 4, 9-dimethylamino-7-(3-fluorophenyl)-2-methyl-thiazolo[4,5-f]quinoline] | – | 3.6 µM | –
CN(C)c1cc(-c2cccc(F)c2)nc2ccc3ncsc3c12 [Example 5, 9-dimethylamino-7-(3-fluorophenyl)-thiazolo[5,4-f]quinoline] | 14.3 µM | – | –
CNc1cc(-c2cccc(F)c2)nc2ccc3sc(C)nc3c12 [Example 6, 7-(3-fluorophenyl)-2-methyl-9-methylamino thiazolo[4,5-f]quinoline] | – | 2 µM | –

Continued, in another order:

IC50 [1] | IC50 [2] | SMILES | other results
9.9 µM | – | CNc1cc(-c2ccncc2)nc2ccc3c(ncn3C)c12 [Example 1, 3-methyl-9-methylamino-7-(pyridin-4-yl)-3H-imidazo[4,5-f]quinoline] | –
15.2 µM | – | CNc1cc(-c2cccc(F)c2)nc2ccc3c(ncn3C)c12 [Example 2, 7-(3-fluorophenyl)-3-methyl-9-methylamino-3H-imidazo [4,5-f]quinoline] | –
